Read-outs that look alike come from different tables or passages of the source.
Key:
[1] = tested on: heart homogenates; test: oxygen consumption (Q O2) in heart homogenates with and without added CoA; assay type: biochemical; details: compound 10^-3 M
[2] = in vivo; details: mouse, in vivo, iv
Description: The tolerance of acetyl-d,l-carnitine and of the other aforementioned acyl derivatives of the formula (I), as well as their salts were investigated by comparing the LD50 obtained by administering the compounds intravenously in mice with the LD50 obtained under the same experimental conditions by intravenous injection of d,l-carnitine.

[3] = tested on: isolated rabbit hearts; test: cardiokinetic effect on isolated heart (Langendorff): contractile force after anoxia, positive inotropic effect; details: 10 minutes from interruption of anoxic period
Method in brief: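 Rabbit hearts were perfused Langendorff-style with oxygenated Ringer at 38.2 °C. Anoxia was applied until contractile force dropped by 80%, then the hearts were reoxygenated with or without compound. Contractile force was expressed as a percentage 10 min after the anoxic period ended.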

[4] = tested on: isolated rabbit hearts; test: coronary vasodilator effect: coronary flow, isolated heart (Langendorff)
Method in brief: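 Langendorff-perfused isolated rabbit hearts in oxygenated Ringer at 38.2° C; anoxia imposed until contractile force fell by 80%, then reoxygenated with or without test compound. Coronary flow, isometric contraction and ECG recorded by polygraph.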

[5] = tested on: isolated rat atrium; test: antiarrhythmic effect, isolated rat atrium method of M. Libonati and G. Segre; details: Rattus norvegicus
[6] = tested on: female rats; test: antifatigue effect: rota-rod; assay type: in vivo, rat; details: Rattus norvegicus, ip, 0.25 h; for responders at 200 mg/kg: read-out: percentage of animals staying on the rota-rod more than 180 seconds, 200 mg/kg i.p.; for responders at 300 mg/kg: read-out: percentage of animals staying on the rota-rod more than 180 seconds, 300 mg/kg i.p.; for responders at 400 mg/kg: read-out: percentage of animals staying on the rota-rod more than 180 seconds, 400 mg/kg i.p.; for responders at 600 mg/kg: read-out: percentage of animals staying on the rota-rod more than 180 seconds, 600 mg/kg i.p.
Method in brief: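 Female rats dosed intraperitoneally in saline, with controls given saline alone. Every 15 min after treatment animals were placed on a 6 cm rod rotating at 16 r.p.m. Value is the percentage of animals staying on the rod for more than 180 s, per session.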

[7] = read-out: Mean percent variation versus controls: excitability (-%)
[8] = read-out: Mean percent variation versus controls: frequency max (-%)
[9] = read-out: Mean percent variation versus controls: refractory period (+%)
[10] = read-out: Mean percent variation versus controls: rheobase (+%)
[11] = session 6 (every 15 minutes), * p < 0.05

SMILES: C[N+](C)(C)CC(O)CC(=O)[O-] (racemic) [d,l-carnitine, γ-trimethyl amino β-hydroxy butyric acid]
- Q O2 ([1]; added CoA 0): 7.0 μlO2 /mg protein/hr.
- Q O2 ([1]; added CoA 2 × 10^-6 M): 8.4 μlO2 /mg protein/hr.
- Q O2 ([1]; added CoA 4 × 10^-6 M): 19.5 μlO2 /mg protein/hr.
- Q O2 ([1]; added CoA 8 × 10^-7 M): 8.1 μlO2 /mg protein/hr.
- LD50 [2]: ~610 mg/kg
- Contractile force, Mean ± S.E. ([3]; 1·10^-5 g/lt): 50.9 ± 3.01%
- Contractile force, Mean ± S.E. ([3]; 1·10^-6 g/lt): 28.4 ± 3.15%
- Contractile force, Mean ± S.E. ([3]; 5·10^-6 g/lt): 32.2 ± 2.90%
- Coronary flow, Mean ± S.E. ([4]; 1·10^-5 g/lt): 85.18 ± 3.26%
- Coronary flow, Mean ± S.E. ([4]; 1·10^-6 g/lt): 74.02 ± 6.17%
- Coronary flow, Mean ± S.E. ([4]; 5·10^-6 g/lt): 77.85 ± 3.01%
- inhibition at 0.001 µg/mL [5, 7]: 12.7%
- inhibition at 0.01 µg/mL [5, 7]: 19.3%
- inhibition at 0.1 µg/mL [5, 7]: 27.1%
- inhibition at 0.001 µg/mL [5, 8]: 7.28%
- inhibition at 0.01 µg/mL [5, 8]: 23.6%
- inhibition at 0.1 µg/mL [5, 8]: 25.2%
- activation at 0.001 µg/mL [5, 9]: 18.3%
- activation at 0.01 µg/mL [5, 9]: 26%
- activation at 0.1 µg/mL [5, 9]: 31.1%
- activation at 0.001 µg/mL [5, 10]: 5.81%
- activation at 0.01 µg/mL [5, 10]: 9.07%
- activation at 0.1 µg/mL [5, 10]: 20.3%
- responders at 200 mg/kg ([6]; session 1 (every 15 minutes)): 0%
- responders at 200 mg/kg ([6]; session 2 (every 15 minutes)): 0%
- responders at 200 mg/kg ([6]; session 3 (every 15 minutes)): 0%
- responders at 200 mg/kg ([6]; session 4 (every 15 minutes)): 0%
- responders at 200 mg/kg ([6]; session 5 (every 15 minutes), * p < 0.05): 0%
- responders at 200 mg/kg [6, 11]: 0%
- responders at 300 mg/kg ([6]; session 1 (every 15 minutes)): 0%
- responders at 300 mg/kg ([6]; session 2 (every 15 minutes)): 0%
- responders at 300 mg/kg ([6]; session 3 (every 15 minutes)): 0%
- responders at 300 mg/kg ([6]; session 4 (every 15 minutes)): 0%
- responders at 300 mg/kg ([6]; session 5 (every 15 minutes)): 10%
- responders at 300 mg/kg ([6]; session 6 (every 15 minutes)): 10%
- responders at 400 mg/kg ([6]; session 1 (every 15 minutes)): 0%
- responders at 400 mg/kg ([6]; session 2 (every 15 minutes)): 0%
- responders at 400 mg/kg ([6]; session 3 (every 15 minutes)): 8.33%
- responders at 400 mg/kg ([6]; session 4 (every 15 minutes)): 25%
- responders at 400 mg/kg ([6]; session 5 (every 15 minutes)): 25%
- responders at 400 mg/kg [6, 11]: 25%
- responders at 600 mg/kg ([6]; session 1 (every 15 minutes)): 0%
- responders at 600 mg/kg ([6]; session 2 (every 15 minutes)): 16.7%
- responders at 600 mg/kg ([6]; session 3 (every 15 minutes)): 16.7%
- responders at 600 mg/kg ([6]; session 4 (every 15 minutes)): 16.7%
- responders at 600 mg/kg ([6]; session 5 (every 15 minutes)): 16.7%
- responders at 600 mg/kg [6, 11]: 25%

— patent publication US4194006A, “Therapeutic application of acetyl-d,l-carnitine and other acyl derivatives of d,l-carnitine” (priority 1977, dated 1980)
